# Experimental data from publication PMC8698657, “Absorption and Transport Characteristics and Mechanisms of Carnosic Acid” (Biology, 2021).
# Read-outs that look alike come from different tables or passages of the source.
# Key:
# [1] = Trans-enterocyte transport of CA in Caco-2 cell monolayer; assay type: in vitro ADME, human; conditions: human
# Description: (§1) Caco-2 were cultured in EMEM complete medium containing 10% FBS, 1% non-essential amino acids, and 1% penicillin-streptomycin double antibody, and the culture conditions were 37 °C, 5% CO2, in a constant temperature incubator [16]. We first established non-toxic dose ranges of CA in Caco-2 cells using MTT assay. Dimethylsulfoxide (DMSO) was used as the vehicle to deliver CA to the cells. The final concentration of DMSO in all experiments was 0.1% (v/v) in cell culture media. Caco-2 cells were seeded in a 96-well plate at a cell density of 5 × 10^4 cells/mL per well, and cultured under 5% CO2 and 37 °C for 24 h. A quantity of 200 μL of medium was added to each well to obtain a series of CA solutions (concentrations of 25, 50, 75, and 100 μmoL). After 48 h of treatment, Caco-2 cells were subjected to the MTT assay as described previously. For the transport study, Caco-2 cells were seeded on the apical compartment (AP) of 12-well Transwell plates at a density of 2 × 10^5 cells/mL. The complete culture medium was added into basolateral (BL) and AP compartments. The basolateral medium was replaced every other day.
# CA was dissolved in HBSS solution at 50, 75, and 100 μM. The HBSS solution containing CA combined with 0.5% Tween 80, 5 mmol/L EDTA or 5% PEG 400 was prepared. The cumulative migration (Qr), apparent permeability coefficient (Papp), and the Papp value of bi-direction transport of CA were calculated according to formulas.
# The 0.5 mL […] containing different concentrations of CA was added to the AP side of the 12-well Transwell plate, and 1.5 mL HBSS solution was added to the BL side. At 0, 0.5, 1, 1.5, 2, 2.5, and 3 h, 0.2 mL medium was taken from the BL side and stored at −80 °C. The TEER value of each Transwell chamber was measured.
# The cryopreserved Transwell samples were transferred to a 15 mL centrifuge tube, and any remaining liquid was fully washed using 1 mL of 50% methanol solution which was also transferred to the 15 mL centrifuge tube. The mixture was vortexed for 1 min, and 6 mL of ethyl acetate solution was added to the tube and vortexed for another 2 min. The mixture was centrifuged at 6000 rpm/min at 4 °C for 10 min. The supernatant was dried under vacuum, dissolved in 5% phosphoric acid methanol solution, and filtered through a 0.22 μm microporous membrane. The concentration of CA was determined by HPLC as described above.
# [2] = MTT assay, non-toxic dose range of CA; assay type: cell-based; conditions: human, Caco-2 cells, CA 100 μM, vs untreated cells, read-out: cell viability
# Description: as §1
# [3] = Body weight, organ weights and appearance of CA-fed mice; assay type: in vivo; conditions: 50 mg/kg/daily oral gavage
# Source text: The animal experiment protocol was approved by the Institutional Animal Care and Use Committee of Guangzhou Medical University (#GY2020-067, 30 July 2020). Male ICR mice aged 5–6 weeks were kept in a specific-pathogen-free environment with 12-h light/dark cycles. […] Both groups were allowed to eat and drink ad libitum. Four hours after the last gavage, the mice were anesthetized, and their eyeballs were removed for blood collection. They were sacrificed and immediately dissected in the supine position. Serum, major organs (heart, liver, lung, stomach, spleen, kidney, small intestine, cecum, and colon), and the contents of the stomach, small intestine, cecum, and colon were collected, weighed, and stored at −80 °C.
# [4] = Caco-2, CA 75 μM, Average of 0.5-3.0 h
# [5] = Caco-2, CA 100 μM, Average of 0.5-3.0 h
structure (smiles),measurement,setting,value
"CC(C)c1cc2c(c(O)c1O)[C@@]1(C(=O)O)CCCC(C)(C)[C@@H]1CC2 [CA, Carnosic acid]","Papp A→B at 3 h, 75 μM","[1]; Caco-2, CA 75 μM, 3.0 h, CA alone, read-out: Papp AP to BL",0.62 ± 0.01 ×10⁻⁶ cm/s
same,"Papp A→B at 3 h, 75 μM","[1]; Caco-2, CA 75 μM, 3.0 h, read-out: Papp AP-BL",0.62 ± 0.01 ×10⁻⁶ cm/s
same,Papp B→A at 75 μM,[1]; [4],0.66 ± 0.06 ×10⁻⁶ cm/s
same,efflux ratio at 75 μM,[1]; [4],0.63
same,Papp A→B at 75 μM,"[1]; Caco-2, CA 75 μM, Average of 0.5-3.0 h, CA alone, read-out: Papp AP to BL",1.04 ± 0.02 ×10⁻⁶ cm/s
same,Papp A→B at 75 μM,"[1]; Caco-2, CA 75 μM, Average of 0.5-3.0 h, read-out: Papp AP-BL",1.04 ± 0.05 ×10⁻⁶ cm/s
same,"Papp B→A at 0.5 h, 100 μM","[1]; Caco-2, CA 100 μM, 0.5 h",0.39 ± 0.03 ×10⁻⁶ cm/s
same,"efflux ratio at 0.5 h, 100 μM","[1]; Caco-2, CA 100 μM, 0.5 h",0.35
same,"Papp A→B at 0.5 h, 100 μM","[1]; Caco-2, CA 100 μM, 0.5 h, CA alone, read-out: Papp AP to BL",1.1 ± 0.1 ×10⁻⁶ cm/s
same,"Papp A→B at 0.5 h, 100 μM","[1]; Caco-2, CA 100 μM, 0.5 h, read-out: Papp AP-BL",1.1 ± 0.1 ×10⁻⁶ cm/s
same,"Papp B→A at 1 h, 100 μM","[1]; Caco-2, CA 100 μM, 1.0 h",0.56 ± 0.04 ×10⁻⁶ cm/s
same,"efflux ratio at 1 h, 100 μM","[1]; Caco-2, CA 100 μM, 1.0 h",0.42
same,"Papp A→B at 1 h, 100 μM","[1]; Caco-2, CA 100 μM, 1.0 h, CA alone, read-out: Papp AP to BL",1.32 ± 0.09 ×10⁻⁶ cm/s
same,"Papp A→B at 1 h, 100 μM","[1]; Caco-2, CA 100 μM, 1.0 h, read-out: Papp AP-BL",1.32 ± 0.09 ×10⁻⁶ cm/s
same,"Papp B→A at 1.5 h, 100 μM","[1]; Caco-2, CA 100 μM, 1.5 h",2.53 ± 0.03 ×10⁻⁶ cm/s
same,"efflux ratio at 1.5 h, 100 μM","[1]; Caco-2, CA 100 μM, 1.5 h",1.07
same,"Papp A→B at 1.5 h, 100 μM","[1]; Caco-2, CA 100 μM, 1.5 h, CA alone, read-out: Papp AP to BL",2.36 ± 0.08 ×10⁻⁶ cm/s
same,"Papp A→B at 1.5 h, 100 μM","[1]; Caco-2, CA 100 μM, 1.5 h, read-out: Papp AP-BL",2.36 ± 0.08 ×10⁻⁶ cm/s
same,"Papp B→A at 2 h, 100 μM","[1]; Caco-2, CA 100 μM, 2.0 h",1.33 ± 0.05 ×10⁻⁶ cm/s
same,"Papp A→B at 2 h, 100 μM","[1]; Caco-2, CA 100 μM, 2.0 h, CA alone, read-out: Papp AP to BL",0.87 ± 0.02 ×10⁻⁶ cm/s
same,"efflux ratio at 2 h, 100 μM","[1]; Caco-2, CA 100 μM, 2.0 h, read-out: Efflux Ratio",1.52
same,"Papp A→B at 2 h, 100 μM","[1]; Caco-2, CA 100 μM, 2.0 h, read-out: Papp AP-BL",0.87 ± 0.02 ×10⁻⁶ cm/s
same,"Papp B→A at 2.5 h, 100 μM","[1]; Caco-2, CA 100 μM, 2.5 h",1.45 ± 0.01 ×10⁻⁶ cm/s
same,"efflux ratio at 2.5 h, 100 μM","[1]; Caco-2, CA 100 μM, 2.5 h",1.7
same,"Papp A→B at 2.5 h, 100 μM","[1]; Caco-2, CA 100 μM, 2.5 h, CA alone, read-out: Papp AP to BL",0.85 ± 0.05 ×10⁻⁶ cm/s
same,"Papp A→B at 2.5 h, 100 μM","[1]; Caco-2, CA 100 μM, 2.5 h, read-out: Papp AP-BL",0.85 ± 0.05 ×10⁻⁶ cm/s
same,"Papp B→A at 3 h, 100 μM","[1]; Caco-2, CA 100 μM, 3.0 h",1.23 ± 0.03 ×10⁻⁶ cm/s
same,"efflux ratio at 3 h, 100 μM","[1]; Caco-2, CA 100 μM, 3.0 h",1.53
same,"Papp A→B at 3 h, 100 μM","[1]; Caco-2, CA 100 μM, 3.0 h, CA alone, read-out: Papp AP to BL",0.8 ± 0.09 ×10⁻⁶ cm/s
same,"Papp A→B at 3 h, 100 μM","[1]; Caco-2, CA 100 μM, 3.0 h, read-out: Papp AP-BL",0.8 ± 0.09 ×10⁻⁶ cm/s
same,Papp B→A at 100 μM,[1]; [5],1.24 ± 0.04 ×10⁻⁶ cm/s
same,efflux ratio at 100 μM,[1]; [5],1.03
same,Papp A→B at 100 μM,"[1]; Caco-2, CA 100 μM, Average of 0.5-3.0 h, CA alone, read-out: Papp AP to BL",1.21 ± 0.03 ×10⁻⁶ cm/s
same,Papp A→B at 100 μM,"[1]; Caco-2, CA 100 μM, Average of 0.5-3.0 h, read-out: Papp AP-BL",1.2 ± 0.07 ×10⁻⁶ cm/s
same,"efflux ratio at 2 h, 100 μM","[1]; Caco-2, CA 100 μM, after 2-hour incubation, read-out: efflux ratios",1.52 to 1.7
same,efflux ratio,"[1]; Caco-2, CA 50 and 75 μM, except 50 μM after 3-hour incubation, read-out: efflux ratios",< 1
same,"Papp A→B at 1 h, 75 μM","[1]; Caco-2, CA 75 μM, 1.0 h",1.08 ± 0.04 ×10⁻⁶ cm/s
same,"Papp B→A at 1 h, 75 μM","[1]; Caco-2, CA 75 μM, 1.0 h",0.86 ± 0.05 ×10⁻⁶ cm/s
same,"efflux ratio at 1 h, 75 μM","[1]; Caco-2, CA 75 μM, 1.0 h",0.79
same,Papp,"[1]; Caco-2, CA 50–100 μM, 0.5-3 h, read-out: Papp values in both the AP-BL and BL-AP directions",0.12 to 2.53 ×10⁻⁶ cm/s
same,"viability at 48 h, 100 μM",[2],> 90%
same,adverse effects,[3],not associated with noticeable adverse effects
same,"body weight and weights of liver and spleen, CA-fed vs control mice",[3],no significant difference
same,Body Weight,[3]; week 1,33.2 ± 0.9 g
same,Body Weight,[3]; week 2,34.8 ± 2.5 g
same,Body Weight,[3]; week 3,37.1 ± 1.8 g
same,Body Weight,[3]; week 4,38.9 ± 2.4 g
same,Body Weight,[3]; week 5,41.2 ± 3.1 g
